For two compounds, Activity results are on record in ChEMBL document CHEMBL1151645, “Constituents of Solanum dasyphyllum Fruit” (J Nat Prod, 1985).

For this experiment, the species on record is Mus musculus. The experiment in a line: Anticonvulsant activity in mouse. Format: functional, organism-based.

Active and inactive are the calls of the source. The rule behind the calls is not given here.

For `C[C@@H]1CC[C@@]2(NC1)O[C@H]1C[C@H]3[C@@H]4CC=C5C[C@@H](O[C@@H]6O[C@H](CO)[C@H](O)[C@H](O[C@@H]7O[C@H](CO)[C@@H](O)[C@H](O)[C@H]7O)[C@H]6O[C@@H]6O[C@@H](C)[C@H](O)[C@@H](O)[C@H]6O)CC[C@]5(C)[C@H]4CC[C@]3(C)[C@H]1[C@@H]2C`, the result was inactive. With `C[C@@H]1CC[C@@]2(NC1)O[C@H]1C[C@H]3[C@@H]4CC=C5C[C@@H](O[C@@H]6O[C@H](CO)[C@@H](O[C@@H]7O[C@@H](C)[C@H](O)[C@@H](O)[C@H]7O)[C@H](O)[C@H]6O[C@@H]6O[C@@H](C)[C@H](O)[C@@H](O)[C@H]6O)CC[C@]5(C)[C@H]4CC[C@]3(C)[C@H]1[C@@H]2C` the entry was “inactive”.
